In this test the test system is HeLa cell. Description: Cell penetration of pep(CPP)-FITC conjugates in HeLa cell line, flow cytometry (FACS). Type of test: cell-based, Homo sapiens. Conditions: HeLa cells, 20 μM of each carrier peptide combined with FITC, 37° C. for an hour, control cells treated only FITC. As for the experimental part:
Homo sapiens cervix adenocarcinoma cell line as HeLa cell lines were purchased from ATCC (American Type Cell Culture). The cells were cultured in MEM supplemented with 10% fetal bovine serum (Invitrogen, USA), Earle's salts, non-essential amino acids, sodium pyruvate and 100 μg/ml penicillin and 10 units/ml streptomycin and cultured at 37° C., 5% CO2 incubator.
Flow cytometry and Confocal microscope analysis were performed to compare the between degree of cellular uptake of the cells were treated with SEQ ID NO: 1 to SEQ ID NO: 156, pep (CPP) and control.
The cell line was divided in a 6-well plate and cultured in a medium containing 10% fetal bovine serum (Invitrogen, USA), […] at 37° C., 5% CO2 incubator for 12 hours. After washing the cell line with PBS, starvation was induced in a Minimum Essential Medium for an hour. 20 μM of each carrier peptide was treated and cultured at 37° C. for an hour. After repeating the step of washing the cells with PBS for three times, Trypsin-EDTA was treated form 10 mins at 37° C. to separate the carrier peptide on the outside of the cell. cells were collected with refrigerated PBS and centrifugation was performed to repeat the step of washing the cells for three times. After then, the cells were suspended in 0.5 ml of PBS containing 4% Paraformaldehyde and fluorescence of the cells was analyzed using FACS Calibur (Becton Dickinson). The cellular uptake aspect of control and various peptides combined with FITC was compared and analyzed by MFI (Mean Fluorescence Intensity).
Analysis results shown in FIG. 1 to FIG. 23 are given in detail in Table 3 below.
A general note: In flow cytometry, cells or beads pass a laser one at a time.
Take “AAEHRLREEILAKFLHWLMS (listed as Homo sapiens) [pep134]”: the “cellular uptake, MFI (Mean Fluorescence Intensity)” value (shortened to “cellular uptake, MFI”) is recorded as 78.05 ± 2.26. The value for “AAGPLPSEAVQWLCHQAFLL (listed as Homo sapiens) [pep103]” was 126.88 ± 2.14; that for “AERLTSRVKALFSVL (listed as Homo sapiens) [pep10]” was 559.78 ± 3.41; that for “AHGHVRKAFKSHVSTLTDLQ (listed as Homo sapiens) [pep145]” was 11.97 ± 0.78. With “ALFSVLNYE (listed as Homo sapiens) [pep29]”, the “cellular uptake, MFI” value is 33.5 ± 2.48. With “ALFSVLNYER (listed as Homo sapiens) [pep15]”, the “cellular uptake, MFI” value stood at 35.61 ± 1.29.

For ALFSVLNYERARRPGLLGASVLGLDDIHRA [pep2], the “cellular uptake, MFI” value was determined as 37.6 ± 1.89.

In the case of “ALLTSRLRFI (listed as Homo sapiens) [pep5]”, the “cellular uptake, MFI” value was found to be 19.06 ± 1.33.

Consider “AQCPYGVLLKTHCPLRAAVT (listed as Homo sapiens) [pep70]”, for which the “cellular uptake, MFI” value amounted to 21.82 ± 1.76. As to “ARRPGLLG (listed as Homo sapiens) [pep33]”, the “cellular uptake, MFI” value is 14.36 ± 1.63. As to “ARRPGLLGA (listed as Homo sapiens) [pep26]”, the “cellular uptake, MFI” value is recorded as 14.81 ± 1.77. Turning to “ATQARPPPHASGPRRRLGCE (listed as Homo sapiens) [pep59]”, the “cellular uptake, MFI” value came to 18.58 ± 0.52. With “CGPPLYQLGAATQARPPPHA (listed as Homo sapiens) [pep116]”, the “cellular uptake, MFI” value is on record as 20.5 ± 0.97. On to “CPPVYAETKHFLYSSGDKEQ (listed as Homo sapiens) [pep66]”, for which the “cellular uptake, MFI” value is reported as 20.7 ± 2.57.

Regarding “DARPPPAAPSFRQVSCLKEL (listed as Homo sapiens) [pep53]”, the “cellular uptake, MFI” value turned out to be 16.16 ± 0.66.

Regarding “DEALGGTAFVQMPAHGLFPW (listed as Homo sapiens) [pep153]”, the “cellular uptake, MFI” value turned out to be 31.72 ± 1.74. Regarding “EAEVRQHREARPALL (listed as Homo sapiens) [pep40]”, the “cellular uptake, MFI” value worked out at 11.63 ± 1.11. With “EARPALLTSRLRFIPKPDGL (listed as Homo sapiens) [pep138]”, the “cellular uptake, MFI” value came out at 16.43 ± 0.91. Take “EDTDPRRLVQLLRQHSSPWQ (listed as Homo sapiens) [pep72]”: the “cellular uptake, MFI” value is recorded as 17.57 ± 2.31. Regarding “ERARRPGL (listed as Homo sapiens) [pep32]”, the “cellular uptake, MFI” value worked out at 11.98 ± 2.92. For the sequence “ERARRPGLL (listed as Homo sapiens) [pep22]”, the “cellular uptake, MFI” value is listed as 13.56 ± 0.23. For the sequence “FIPKPDGLRPIVNMD (listed as Homo sapiens) [pep42]”, the “cellular uptake, MFI” value is 20.82 ± 1.93. Turning to “FLYSSGDKEQLRPSFLLSSL (listed as Homo sapiens) [pep124]”, the “cellular uptake, MFI” value came out at 23.74 ± 3.62. Consider “FSVLNYERAR (listed as Homo sapiens) [pep18]”, for which the “cellular uptake, MFI” value was 18.7 ± 1.21. Then “FVLRVRAQDPPPELY (listed as Homo sapiens) [pep46]”, with 24.67 ± 2.02.

With “GAAPEPERTPVGQGSWAHPG (listed as Homo sapiens) [pep62]”, the “cellular uptake, MFI” value is given as 14.55 ± 3.71. Regarding “GARTFRREKRAERLTSRVKA (listed as Homo sapiens) [pep82]”, the “cellular uptake, MFI” value was 22.44 ± 3.32.

As for “GASVLGLDDI (listed as Homo sapiens) [pep14]”, the “cellular uptake, MFI” value was found to be 10.51 ± 3.71. Regarding “GLLGASVL (listed as Homo sapiens) [pep34]”, the “cellular uptake, MFI” value amounted to 14.41 ± 3.44.

For the origin of these results see patent US11773381B2, “Cell penetrating peptide, conjugate comprising same, and composition comprising conjugate” (GemVax & KAEL CO., LTD., priority 2012, dated 2023).
